According to patent US6514946B1, “Macrolide antibiotics and treatment and prophylaxis of pasteurellosis using the same” (Zaidan Hojin Biseibutsu Kagaku Kenkyu Kai, priority 1999, dated 2003):
≈ marks a conversion by molar mass, not a printed value.

What was measured:
S. aureus FDA209P = assay: Minimum inhibition concentration (MIC), agar double dilution method; type: cell-based, Staphylococcus aureus; details: Staphylococcus aureus, Mueller hinton agar, read-out: MIC
Method in brief: (§1)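 Agar two-fold dilution per Japan Society of Chemotherapy standard method; Mueller Hinton agar used for these organisms (BHI agar reserved for Pasteurella). MIC read as lowest concentration inhibiting growth.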

[1] = system: Bacillus subtilis NRRL B-558; assay: as above; type: cell-based; details: Bacillus subtilis, NRRLB558
Method in brief: (§2)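 Method: Japan Society of Chemotherapy standard, agar double dilution. Medium: Mueller Hinton agar for the listed strains. Exception: Pasteurella on BHI agar.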

[2] = system: Enterobacter aerogenes ATCC13048; assay: as above; type: cell-based; details: Klebsiella aerogenes, Mueller hinton agar, read-out: MIC
Method in brief: as §1

Escherichia coli NIHJ = assay: as above; type: cell-based; details: Mueller hinton agar, read-out: MIC
Method in brief: as §1

[3] = system: Klebsiella pneumoniae PCI602; assay: as above; type: cell-based; details: Mueller hinton agar, read-out: MIC
Method in brief: as §1

[4] = system: Micrococcus luteus PCI1001; assay: as above; type: cell-based; details: Mueller hinton agar, read-out: MIC
Method in brief: as §1

[5] = system: Pasteurella haemolytica BBPO101 N791; assay: as above; type: cell-based; details: Mannheimia haemolytica, BBPO101N791
Method in brief: as §2

Proteus vulgaris OX19 = assay: as above; type: cell-based; details: Mueller hinton agar, read-out: MIC
Method in brief: as §1

[6] = system: Salmonella enteritidis 1891; assay: as above; type: cell-based; details: Salmonella enterica, Mueller hinton agar, read-out: MIC
Method in brief: as §1

Serratia marcescens = assay: as above; type: cell-based; details: Mueller hinton agar, read-out: MIC
Method in brief: as §1

[7] = system: Shigella dysenteriae JS11910; assay: as above; type: cell-based; details: Shigella dysenteriae, JS11910
Method in brief: as §2

[8] = system: Staphylococcus aureus 193; assay: as above; type: cell-based; details: Mueller hinton agar, read-out: MIC
Method in brief: as §1

E. coli K-12 R-5 = assay: as above; type: cell-based, Escherichia coli; details: Escherichia coli, K12R5, Mueller hinton agar, read-out: MIC
Method in brief: as §1

[9] = system: Past haemolytica BAPO103 S801; assay: as above; type: cell-based, Pasteurella haemolytica; details: Mannheimia haemolytica, BAPO103S801; Past haemolytica BAPO103 S801, strain from poultry; BHI agar; read-out: MIC
Method in brief: as §1

[10] = system: Past haemolytica BBPO102 N811; assay: as above; type: cell-based, Pasteurella haemolytica; details: Mannheimia haemolytica, BBPO102N811
Method in brief: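 Compounds were serially double-diluted into Mueller Hinton agar, following the Japan Society of Chemotherapy standard, and the test strains were then grown on it. Pasteurella alone was tested on brain heart infusion agar.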

[11] = system: Past. multocida BOPO305 M-17; assay: as above; type: cell-based, Pasteurella multocida; details: Pasteurella multocida, BOPO305M17; Past. multocida BOPO305 M-17, strain from a sheep; BHI agar; read-out: MIC
Method in brief: as §2

[12] = system: Past. multocida BSPO302 No. 6; assay: as above; type: cell-based, Pasteurella multocida; details: Pasteurella multocida, BSPO302NO.6; Past. multocida BSPO302 No. 6, strain from a pig; BHI agar; read-out: MIC
Method in brief: as §2

ICR mice = assay: Toxicity test, intravenous or subcutaneous injection; type: in vivo; details: intravenous injection
P. multocida = assay: Bacteria separation test from nasal cavity swab; type: in vivo, cattle
P. haemolytica = assay: Bacteria separation test from nasal cavity swab; type: in vivo, cattle
H. somnus = assay: Bacteria separation test from nasal cavity swab; type: in vivo, cattle
Ureaplasma = assay: Bacteria separation test from nasal cavity swab; type: in vivo, cattle
[13] = system: P. haemolytica 63-39 intraperitoneally infected mice; assay: Antiinfective test on infected mice
P. haemolytica 63-39 = assay: Sensitivity (MIC), agar plate dilution method; details: Mannheimia haemolytica, 6339
[14] = In vivo kinetics (absorption and excretion test) in mice; details: male, Slc ddY, mouse, sc, 5 mg/kg
[15] = before administration (baseline)

CC[C@H]1OC(=O)C[C@@H](O)[C@H](C)[C@@H](O[C@@H]2O[C@H](C)C(O)C(N(C)C)C2O)[C@@H](CCN2CC(C)CC(C)C2)C[C@@H](C)C(=O)/C=C/C(C)=C/[C@@H]1CO[C@@H]1OC(C)C(O)[C@@H](OC)C1OC (stereo partly shown) [Tilmicosin, tilmicosin]
MIC (S. aureus FDA209P): 0.39 µg/mL (≈ 0.449 µM)
MIC [1]: 1.56 µg/mL (≈ 1.79 µM)
MIC [2]: 100 µg/mL (≈ 115 µM)
MIC (Escherichia coli NIHJ): 25 µg/mL (≈ 28.8 µM)
MIC [3]: 25 µg/mL (≈ 28.8 µM)
MIC [4]: 0.2 µg/mL (≈ 0.23 µM)
MIC [5]: 1.56 µg/mL (≈ 1.79 µM)
MIC (Proteus vulgaris OX19): 100 µg/mL (≈ 115 µM)
MIC [6]: 6.25 µg/mL (≈ 7.19 µM)
MIC (Serratia marcescens): > 100 µg/mL
MIC [7]: 100 µg/mL (≈ 115 µM)
MIC [8]: 0.39 µg/mL (≈ 0.449 µM)
MIC (E. coli K-12 R-5): > 100 µg/mL
MIC [9]: 50 µg/mL (≈ 57.5 µM)
MIC [10]: 1.56 µg/mL (≈ 1.79 µM)
MIC [11]: 6.25 µg/mL (≈ 7.19 µM)
MIC [12]: 6.25 µg/mL (≈ 7.19 µM)
Dissection finding (ICR mice; 0.5 mg/mouse): immediate death
Dissection finding (ICR mice; 1.0 mg/mouse): immediate death
Dissection finding (ICR mice; 2.0 mg/mouse): immediate death
Separation rate (%) at completion (number of animal) (P. multocida; at completion): 80 (4/5) % (number of animal)
Separation rate (%) before administration (number of animal) (P. multocida; [15]): 100 (5/5) % (number of animal)
Separation rate (%) at completion (number of animal) (P. haemolytica; at completion): 20 (1/5) % (number of animal)
Separation rate (%) before administration (number of animal) (P. haemolytica; [15]): 20 (1/5) % (number of animal)
Separation rate (%) at completion (number of animal) (H. somnus; at completion): 0 (0/5) % (number of animal)
Separation rate (%) before administration (number of animal) (H. somnus; [15]): 0 (0/5) % (number of animal)
Separation rate (%) at completion (number of animal) (Ureaplasma; at completion): 60 (3/5) % (number of animal)
Separation rate (%) before administration (number of animal) (Ureaplasma; [15]): 100 (5/5) % (number of animal)
ED50 ([13]; Mannheimia haemolytica, in Mus musculus, sc, 168 h, read-out: ED50 (95% confidence limit)): 26.2 mg/kg
Surviving number after 7 days/test number ([13]; dose 1 mg/kg subcutaneous one hour after infection): 0/10
Surviving number after 7 days/test number ([13]; dose 5 mg/kg subcutaneous one hour after infection): 0/10
Surviving number after 7 days/test number ([13]; dose 10 mg/kg subcutaneous one hour after infection): 3/10
Surviving number after 7 days/test number ([13]; dose 20 mg/kg subcutaneous one hour after infection): 4/10
Surviving number after 7 days/test number ([13]; dose 30 mg/kg subcutaneous one hour after infection): 5/10
ED90 ([13]; probit method from surviving numbers after 7 days, subcutaneous): 102.1 mg/kg
MIC (P. haemolytica 63-39): 3.13 µg/mL (≈ 3.6 µM)
concentration at 0.5 h ([14]; lung): 310 ng/g
concentration at 1 h ([14]; lung): 350 ng/g
concentration at 2 h ([14]; lung): 310 ng/g
concentration at 4 h ([14]; lung): 230 ng/g
concentration at 8 h ([14]; lung): 195 ng/g
concentration at 24 h ([14]; lung): 60 ng/g
concentration at 0.5 h ([14]; serum): 230 ng/mL
concentration at 1 h ([14]; serum): 60 ng/mL
concentration at 2 h ([14]; serum): 50 ng/mL
concentration at 4 h ([14]; serum): 40 ng/mL
